In ChEMBL document CHEMBL1649227, “In vitro antiviral activity of V-073 against polioviruses” (Antimicrob Agents Chemother, 2009):
In brackets after ≈: the same amount, converted by molar mass.

Key:
Enterovirus C [1] = assay: Antiviral activity against Poliovirus MEF-1 serotype PV2 infected in […] LLC-MK2 cells assessed as inhibition of viral-replication induced cytopathic effect; assay type: functional, organism-based; conditions: MEF-1 serotype PV2, LLC-MK2
Enterovirus C [2] = assay: Antiviral activity against Poliovirus Saukett serotype PV3 infected in […] LLC-MK2 cells assessed as inhibition of viral-replication induced cytopathic effect; assay type: functional, organism-based
Coxsackievirus B3 = assay: Antiviral activity against Coxsackievirus serotype B3 infected in african green monkey BGMK cells assessed as inhibition of virus induced cytopathic effect after 18 to 24 hrs; assay type: functional, organism-based; conditions: Enterovirus B
Enterovirus C [3] = assay: Antiviral activity against Poliovirus P712 serotype PV2 vaccine-derived infected in […] LLC-MK2 cells assessed as inhibition of viral-replication induced cytopathic effect; assay type: functional, organism-based
Enterovirus C [4] = assay: Antiviral activity against Poliovirus 10230 serotype PV2 obtained from circulating vaccine infected in […] LLC-MK2 cells assessed as inhibition of viral-replication induced cytopathic effect; assay type: functional, organism-based; conditions: 10230 serotype PV2, LLC-MK2
Enterovirus C [5] = assay: Antiviral activity against Poliovirus 10237 serotype PV1 obtained from circulating vaccine infected in […] LLC-MK2 cells assessed as inhibition of viral-replication induced cytopathic effect; assay type: functional, organism-based; conditions: 10237 serotype PV1, LLC-MK2
Enterovirus C [6] = assay: Antiviral activity against Poliovirus Brunhilde serotype PV1 infected in […] LLC-MK2 cells assessed as inhibition of viral-replication induced cytopathic effect; assay type: functional, organism-based
Coxsackievirus B5 = assay: Antiviral activity against Coxsackievirus serotype B5 infected in african green monkey BGMK cells assessed as inhibition of virus induced cytopathic effect after 18 to 24 hrs; assay type: functional, organism-based; conditions: Enterovirus B
Enterovirus C [7] = assay: Antiviral activity against Poliovirus 10220 serotype PV2 obtained from circulating vaccine infected in […] LLC-MK2 cells assessed as inhibition of viral-replication induced cytopathic effect; assay type: functional, organism-based; conditions: 10220 serotype PV2, LLC-MK2
Enterovirus C [8] = assay: Antiviral activity against Poliovirus 10231 serotype PV2 obtained from circulating vaccine infected in […] LLC-MK2 cells assessed as inhibition of viral-replication induced cytopathic effect; assay type: functional, organism-based; conditions: 10231 serotype PV2, LLC-MK2
Enterovirus C [9] = assay: Antiviral activity against Poliovirus 10693 serotype PV1 obtained from circulating vaccine infected in […] LLC-MK2 cells assessed as inhibition of viral-replication induced cytopathic effect; assay type: functional, organism-based; conditions: 10693 serotype PV1, LLC-MK2
Coxsackievirus B2 = assay: Antiviral activity against Coxsackievirus serotype B2 infected in african green monkey BGMK cells assessed as inhibition of virus induced cytopathic effect after 18 to 24 hrs; assay type: functional, organism-based; conditions: Enterovirus B
Enterovirus C [10] = assay: Antiviral activity against Poliovirus 10219 serotype PV2 obtained from circulating vaccine infected in […] LLC-MK2 cells assessed as inhibition of viral-replication induced cytopathic effect; assay type: functional, organism-based; conditions: 10219 serotype PV2, LLC-MK2
Enterovirus C [11] = assay: Antiviral activity against Poliovirus 10224 serotype PV1 obtained from immunodeficient chronic excretor infected in […] LLC-MK2 cells assessed as inhibition of viral-replication induced cytopathic effect; assay type: functional, organism-based; conditions: 10224 serotype PV1, LLC-MK2
Enterovirus C [12] = assay: Antiviral activity against Poliovirus 10222 serotype PV1 obtained from immunodeficient chronic excretor infected in […] LLC-MK2 cells assessed as inhibition of viral-replication induced cytopathic effect; assay type: functional, organism-based; conditions: 10222 serotype PV1, LLC-MK2
Enterovirus C [13] = assay: Antiviral activity against Poliovirus 10233 serotype PV2 obtained from circulating vaccine infected in […] LLC-MK2 cells assessed as inhibition of viral-replication induced cytopathic effect; assay type: functional, organism-based; conditions: 10233 serotype PV2, LLC-MK2
Enterovirus C [14] = assay: Antiviral activity against Poliovirus PV1-LSc/2ab serotype PV1 vaccine-derived infected in […] LLC-MK2 cells assessed as inhibition of viral-replication induced cytopathic effect; assay type: functional, organism-based; conditions: PV1-LSc/2ab serotype PV1, LLC-MK2
[15] = Cytotoxicity against african green monkey BGMK cells after 18 to 24 hrs by MTT assay; assay type: cell-based; conditions: chlorocebus aethiops
Enterovirus C [16] = assay: Antiviral activity against Poliovirus 10238 serotype PV1 obtained from circulating vaccine infected in […] LLC-MK2 cells assessed as inhibition of viral-replication induced cytopathic effect; assay type: functional, organism-based; conditions: 10238 serotype PV1, LLC-MK2
Enterovirus C [17] = assay: Antiviral activity against Poliovirus 10691 serotype PV1 obtained from circulating vaccine infected in […] LLC-MK2 cells assessed as inhibition of viral-replication induced cytopathic effect; assay type: functional, organism-based; conditions: 10691 serotype PV1, LLC-MK2
Enterovirus C [18] = assay: Antiviral activity against Poliovirus 10668 serotype PV1 obtained from immunodeficient chronic excretor infected in […] LLC-MK2 cells assessed as inhibition of viral-replication induced cytopathic effect; assay type: functional, organism-based; conditions: 10668 serotype PV1, LLC-MK2
Enterovirus C [19] = assay: Antiviral activity against Poliovirus 10243 serotype PV2 obtained from immunodeficient chronic excretor infected in […] LLC-MK2 cells assessed as inhibition of viral-replication induced cytopathic effect; assay type: functional, organism-based; conditions: 10243 serotype PV2, LLC-MK2
enterovirus D68 = assay: Antiviral activity against Enterovirus serotype 68 infected in african green monkey BGMK cells assessed as inhibition of virus induced cytopathic effect after 18 to 24 hrs; assay type: functional, organism-based; conditions: Enterovirus D
Enterovirus A71 = assay: Antiviral activity against Enterovirus serotype 71 infected in african green monkey BGMK cells assessed as inhibition of virus induced cytopathic effect after 18 to 24 hrs; assay type: functional, organism-based; conditions: Enterovirus A
Enterovirus C [20] = assay: Antiviral activity against Poliovirus PV3-Leon serotype PV3 vaccine-derived infected in […] LLC-MK2 cells assessed as inhibition of viral-replication induced cytopathic effect; assay type: functional, organism-based
HeLa = assay: Cytotoxicity against human HeLa cells after 18 to 24 hrs by MTT assay; assay type: cell-based
Enterovirus C [21] = assay: Antiviral activity against Poliovirus 10232 serotype PV2 obtained from circulating vaccine infected in […] LLC-MK2 cells assessed as inhibition of viral-replication induced cytopathic effect; assay type: functional, organism-based; conditions: 10232 serotype PV2, LLC-MK2
Enterovirus C [22] = assay: Antiviral activity against Poliovirus 10692 serotype PV1 obtained from circulating vaccine infected in […] LLC-MK2 cells assessed as inhibition of viral-replication induced cytopathic effect; assay type: functional, organism-based; conditions: 10692 serotype PV1, LLC-MK2
Enterovirus C [23] = assay: Antiviral activity against Poliovirus Leon serotype PV3 infected in […] LLC-MK2 cells assessed as inhibition of viral-replication induced cytopathic effect; assay type: functional, organism-based

## COc1ccc(OCc2ccc(COc3c(Cl)cccc3Cl)cc2)c(Cl)c1
Enterovirus C [1]
  EC50: 26 nM
Enterovirus C [2]
  EC50: 62 nM
Coxsackievirus B3
  EC50: 3790 nM
Enterovirus C [3]
  EC50: 3 nM
Enterovirus C [4]
  EC50: 36 nM
Enterovirus C [5]
  EC50: 11 nM
Enterovirus C [6]
  EC50: 18 nM
Coxsackievirus B5
  EC50: 3790 nM
Enterovirus C [7]
  EC50: 10 nM
Enterovirus C [8]
  EC50: 28 nM
Enterovirus C [9]
  EC50: 8 nM
Coxsackievirus B2
  EC50: 3790 nM
Enterovirus C [10]
  EC50: 23 nM
Enterovirus C [11]
  EC50: 69 nM
Enterovirus C [12]
  EC50: 15 nM
Enterovirus C [13]
  EC50: 24 nM
Enterovirus C [14]
  EC50: 17 nM
[15]
  Activity: > 50 µg/mL
Enterovirus C [16]
  EC50: 14 nM
Enterovirus C [17]
  EC50: 18 nM
Enterovirus C [18]
  EC50: 21 nM
Enterovirus C [19]
  EC50: 38 nM
Enterovirus D68
  MIC90: 1.42 µM (≈ 0.602 µg/mL)
Enterovirus D68; BGMK
  EC50: 3470 nM
Enterovirus A71
  MIC90: 1.42 µM (≈ 0.602 µg/mL)
Enterovirus A71; BGMK
  EC50: 3470 nM
Enterovirus C [20]
  EC50: 20 nM
HeLa
  Activity: > 50 µg/mL
Enterovirus C [21]
  EC50: 19 nM
Enterovirus C [22]
  EC50: 29 nM
Enterovirus C [23]
  EC50: 109 nM
